Earlier results on four compounds are cited in patent US11877989B2, “Nutritional supplement containing L-α-glycerophosphorylcholine” (Energy Beverages LLC, priority 2020, dated 2024).

For series [1] the following is noted: six weeks of supplementation.
For series [2], the system named is subjects. The conditions noted are these: 600 mg per day, after 6 days.
The conditions of series [3]: dose of 6 mg/kg.
Series [4] has as its system amnesia caused by scopolamine. The conditions noted are these: oral.
The subject of series [5] is subjects.
Series [6] concerns rats. Conditions: up to 1000 mg/kg/day.
Another series has as its system beagles. The conditions noted are these: up to 300 mg/kg/day.
For series [7] the following is noted: single intramuscular dose.
For series [8], the system named is rats.
A further series relates to healthy male subjects. Conditions: 1000 mg ingested, 60 min after taking.
Series [9] relates to patients after stroke or transient ischemic attacks. Conditions: 1000 mg daily for 28 days, then 400 mg three times per day for 5 months.
For series [10] the following is noted: in vivo and in vitro assays.
For series [11], the system named is subjects. Conditions: in vivo.

Regarding `C[N+](C)(C)CC(=O)[O-]` [trimethylglycine], the “effects of supplementation on body composition, arm size, bench press work capacity and urinary HCTL” value in [1] is “improve body composition, arm size, and bench press work capacity, and to attenuate the rise in urinary homocysteine thiolactone (HCTL)”.
Turning to `CC(C)C[C@H](NC(=O)CN(C)C(=N)N)C(=O)O` [Creatyl-L-leucine, creatyl-L-leucine], the “solubility relative to creatine and L-leucine” value is recorded as “more soluble than either creatine or L-leucine”.
L-α-glycerophosphorylcholine [α-GPC]: the “lower body force production” value with subjects [2] is reported as “increased lower body force production”. For the same compound, in series [3], the “improvement of accuracy during a reaction-time test” value was 12% and the “increase of upper body power output” value is recorded as 12%. Besides, the “effect on amnesia caused by scopolamine in passive avoidance” value in series [4] is given as “reverses amnesia”. The “dose of peak effect” value in [4] (5 h before training) is on record as 600 mg/kg. Besides, the “peak bench press force, greater” value with subjects [5] (600 mg) is recorded as 14%. Further, in the series with subjects [5] (600 mg single dose), the “increase of peak growth hormone levels” value is listed as 44 fold and the “peak growth hormone level after supplementation” value is 8.4 ± 2.1 ng/mL. Further, in the series with subjects [5] (600 mg single dose, starting value), the “peak growth hormone level before supplementation” value was 0.19 ± 0.06 ng/mL. Further, the “symptomology in sub-chronic and chronic oral toxicity studies” value in the series with rats [6] is “reduced activity; slight decreases in food consumption and body weight gain; and slight reduction in liver weight”. Moreover, in the series with beagles, the “symptomology in sub-chronic and chronic oral toxicity studies” value was “reduced activity; slight decreases in food consumption and body weight gain; and slight reduction in liver weight”. In series [7], the “return of plasma choline concentration to baseline” value was “returned to near baseline values over a six hour period” and the “time of peak plasma choline levels” value is “within about half an hour after the injection”. Further, in the series with rats [8], the “oral LD50” value is listed as ≥ 10,000 mg/kg. Moreover, in the series with healthy male subjects, the “plasma growth hormone secretion versus placebo” value is on record as “increased significantly”. Also, the “oral LD50” value with mice is reported as ≥ 10,000 mg/kg. The cognitive recovery result in series [9] was “assists in the cognitive recovery”. In [10], the mutagenic activity result is on record as “devoid of mutagenic activity”.
With `CCNC(=O)CC[C@H](N)C(=O)O` [L-theanine, N^5-ethyl-L-glutamine], the “cognitive function, including verbal fluency, versus placebo” value with subjects [11] was “improved”.
